Experimental data from patent US20130310427A1, “INHIBITORS OF HCV NS5A PROTEIN” (PRESIDIO PHARMACEUTICALS, INC., priority 2010, published 2013).

What follows are compounds tested on bicistronic genotype 1b replicon in Huh 7 cells (1b_Huh-Luc/Neo-ET cell line) (assay: HCV replicon assay, luciferase enzyme activity readout). Settings: Hepatitis C virus, 1b_Huh-Luc/Neo-ET replicon cells, 72 h incubation, Bright-Glo luciferase readout, EC50 ranges, read-out: Inhibition of HCV genotype 1b.
Type: cell-based
Method: Biological activity of the compounds of the invention was determined using an HCV replicon assay. The 1b_Huh-Luc/Neo-ET cell line persistently expressing a bicistronic genotype 1b replicon in Huh 7 cells was obtained from ReBLikon GMBH. This cell line was used to test compound inhibition using luciferase enzyme activity readout as a measurement of compound inhibition of replicon levels.
On Day 1 (the day after plating), each compound is added in triplicate to the cells. Plates incubated for 72 h prior to running the luciferase assay. Enzyme activity was measured using a Bright-Glo Kit (cat. number E2620) manufactured by Promega Corporation. The following equation was used to generate a percent control value for each compound.
% Control=(Average Compound Value/Average Control)*100
The EC50 value was determined using GraphPad Prism and the following equation:
Y=Bottom+(Top−Bottom)/(1+10̂((Log IC50−X)*HillSlope))
EC50 values of compounds are repeated several times in the replicon assay.

Row | Compound | EC50 [nM]
1 | COC(=O)N[C@H](C(=O)N1CC(C)=CC1c1ncc(-c2ccc(-c3ccc4cc(-c5cnc([C@@H]6CCCN6C(=O)[C@@H](NC(=O)OC)C(C)C)[nH]5)ccc4c3)cc2)[nH]1)C(C)C (stereo partly shown) [Compound 101] | < 1
2 | COC(=O)N[C@H](C(=O)N1CC(C)=C[C@H]1c1ncc(-c2ccc(C#Cc3ccc4nc([C@@H]5CCCN5C(=O)[C@@H](NC(=O)OC)C(C)C)[nH]c4c3)cc2)[nH]1)C(C)C [Compound 102] | < 1
3 | COC(=O)N[C@H](C(=O)N1CC(C)=C[C@H]1c1ncc(-c2ccc(C#Cc3ccc(-c4cnc([C@@H]5CCCN5C(=O)[C@@H](NC(=O)OC)C(C)C)[nH]4)cc3)cc2)[nH]1)C(C)C [Compound 103] | < 1
4 | COC(=O)N[C@H](C(=O)N1CC(C)=C[C@H]1c1nc2ccc(C#Cc3ccc(-c4cnc([C@@H]5CCCN5C(=O)[C@@H](NC(=O)OC)C(C)C)[nH]4)cc3)cc2[nH]1)C(C)C [Compound 104] | < 1
5 | COC(=O)N[C@H](C(=O)N1CC(C2CC2)=C[C@H]1c1ncc(-c2ccc(-c3ccc4cc(-c5cnc([C@@H]6CCCN6C(=O)[C@@H](NC(=O)OC)C(C)C)[nH]5)ccc4c3)cc2)[nH]1)C(C)C [Compound 105] | < 1
6 | COC(=O)N[C@H](C(=O)N1CC(C2CC2)=C[C@H]1c1ncc(-c2ccc(C#Cc3ccc4nc([C@@H]5CCCN5C(=O)[C@@H](NC(=O)OC)C(C)C)[nH]c4c3)cc2)[nH]1)C(C)C [Compound 109] | < 1
7 | COC(=O)N[C@H](C(=O)N1CC(C2CC2)=C[C@H]1c1ncc(-c2ccc(C#Cc3ccc(-c4cnc([C@@H]5CCCN5C(=O)[C@@H](NC(=O)OC)C(C)C)[nH]4)cc3)cc2)[nH]1)C(C)C [Compound 110] | < 1
8 | COC(=O)N[C@H](C(=O)N1CC(C)=C[C@H]1c1ncc(-c2ccc(C#Cc3ccc(-c4cnc([C@@H]5C=C(C)CN5C(=O)[C@@H](NC(=O)OC)C(C)C)[nH]4)cc3)cc2)[nH]1)C(C)C [Compound 111] | < 1
9 | COC(=O)N[C@H](C(=O)N1CC(C)=C[C@H]1c1ncc(-c2ccc3c(c2)Oc2ccc(-c4cnc([C@@H]5C=C(C)CN5C(=O)[C@@H](NC(=O)OC)C(C)C)[nH]4)cc2C3(C)C)[nH]1)C(C)C [Compound 112] | < 1
10 | COC(=O)N[C@H](C(=O)N1CC(C)=C[C@H]1c1ncc(-c2ccc3c(=O)c4cc(-c5cnc([C@@H]6C=C(C)CN6C(=O)[C@@H](NC(=O)OC)C(C)C)[nH]5)ccc4oc3c2)[nH]1)C(C)C [Compound 113] | < 1
11 | COC(=O)N[C@H](C(=O)N1CC(C2CC2)=C[C@H]1c1nc2ccc(-c3ccc4cc(-c5cnc([C@@H]6CCCN6C(=O)[C@@H](NC(=O)OC)C(C)C)[nH]5)ccc4c3)cc2[nH]1)C(C)C [Compound 114] | < 1
12 | COC(=O)N[C@H](C(=O)N1CC(C2CC2)=C[C@H]1c1nc2ccc(C#Cc3ccc(-c4cnc([C@@H]5CCCN5C(=O)[C@@H](NC(=O)OC)C(C)C)[nH]4)cc3)cc2[nH]1)C(C)C [Compound 115] | < 1
13 | COC(=O)N[C@H](C(=O)N1CC(C2CC2)=C[C@@H]1c1nc2ccc(C#Cc3ccc(-c4cnc([C@@H]5CCCN5C(=O)[C@@H](NC(=O)OC)C(C)C)[nH]4)cc3)cc2[nH]1)C(C)C [Compound 116] | 1 to 9.9
14 | COC(=O)N[C@H](C(=O)N1CC(C)=C[C@H]1c1ncc(-c2ccc(C#Cc3ccc4c(ccc5nc([C@@H]6CCCN6C(=O)[C@@H](NC(=O)OC)C(C)C)[nH]c54)c3)cc2)[nH]1)C(C)C [Compound 118] | < 1
15 | COC(=O)N[C@H](C(=O)N1CC(C)=C[C@H]1c1ncc(-c2ccc3cc(-c4ccc5nc([C@@H]6CCCN6C(=O)[C@@H](NC(=O)OC)C(C)C)[nH]c5c4)ccc3c2)[nH]1)C(C)C [Compound 119] | < 1
16 | COC(=O)N[C@H](C(=O)N1CC(C)=C[C@H]1c1ncc(-c2ccc3cc(-c4ccc(-c5cnc([C@@H]6CCCN6C(=O)[C@@H](NC(=O)OC)C(C)C)[nH]5)cc4)ccc3c2)[nH]1)C(C)C [Compound 120] | < 1
17 | COC(=O)N[C@H](C(=O)N1CC(C)=C[C@H]1c1ncc(-c2ccc(-c3ccc4cc(-c5cnc([C@@H]6C=C(C)CN6C(=O)[C@@H](NC(=O)OC)C(C)C)[nH]5)ccc4c3)cc2)[nH]1)C(C)C [Compound 121] | < 1
18 | COC(=O)N[C@H](C(=O)N1CC(C)=C[C@H]1c1ncc(-c2ccc3cc(-c4ccc5nc([C@@H]6C=C(C7CC7)CN6C(=O)[C@@H](NC(=O)OC)C(C)C)[nH]c5c4)ccc3c2)[nH]1)C(C)C [Compound 122] | < 1
19 | COC(=O)N[C@H](C(=O)N1CC(C)=C[C@H]1c1ncc(-c2ccc3cc(C#Cc4cnc([C@@H]5CCCN5C(=O)[C@@H](NC(=O)OC)C(C)C)[nH]4)ccc3c2)[nH]1)C(C)C [Compound 123] | < 1
